# Laboratory results as given in patent US4874844A, “Tripeptide with immunostimulating activity” (Ellem Industria Farmaceutica S.p.A., priority 1986, dated 1989).
# Peptide text beside a SMILES is read from it.
# How the values were obtained:
# [1] = type: in vitro ADME
# Text: Resistance to the In Vitro Simulated Gastric Ambient The tripeptide is resistant to the in vitro simulated gastric ambient. In this study the gastric simulated juice USP XXI (HCl+pepsin) has been used at 37 C for 5 hrs.
# mice [2] = assay: Acute toxicity in mice; type: in vivo; settings: up to a dose of 1000 mg/Kg i.m.
# rats = assay: Acute toxicity in rats; type: in vivo; settings: up to a dose of 1000 mg/Kg i.m.
# rabbits = assay: Tolerability in rabbits; type: in vivo; settings: 100 mg/Kg i.v.
# mice [3] = assay: Tolerability in mice; type: in vivo; settings: 100 mg/Kg i.p.
# [4] = Pentobarbital-induced sleeping time; type: in vivo; settings: 100 mg/Kg
# guinea-pig = settings: in vivo, 100 mg/kg
smiles,measurement,setting,value
"N=C(N)NCCC[C@H](N)C(=O)N[C@@H](CCCCN)C(=O)N[C@@H](CCC(=O)O)C(=O)O [ELS1, Arg-Lys-Glu] (H-Arg-Lys-Glu-OH)",resistance to the in vitro simulated gastric ambient,[1],resistant
same,acute toxicity,mice [2],totally devoid of toxic effects
same,acute toxicity,rats,totally devoid of toxic effects
same,tolerability: hemodynamic modification and behavioral effect,rabbits,doesn't cause any hemodynamic modification and behavioral effect
same,tolerability: hemodynamic modification and behavioral effect,mice [3],doesn't cause any hemodynamic modification and behavioral effect
same,pentobarbital-induced sleeping time,[4],only a slight increase
same,sensitization phenomena,guinea-pig,doesn't induce any sensitization phenomena
